Test results reported in article PMC4352033, “SD-208, a Novel Protein Kinase D Inhibitor, Blocks Prostate Cancer Cell Proliferation and Tumor Growth In Vivo by Inducing G2/M Cell Cycle Arrest” (PLoS ONE, 2015).

What was measured:
Type in all cases: biochemical
[1] = molecular target: T1, PKCα (Homo sapiens, UniProt P17252)
T1 construct: gene PRKCA; recombinant PKCα

[2] = molecular target: T2, PKCδ (Homo sapiens, UniProt Q05655); test: in vitro radiometric PKC kinase assay
T2 construct: gene PRKCD; recombinant PKCδ
T2 sequence (Q05655 whole entry): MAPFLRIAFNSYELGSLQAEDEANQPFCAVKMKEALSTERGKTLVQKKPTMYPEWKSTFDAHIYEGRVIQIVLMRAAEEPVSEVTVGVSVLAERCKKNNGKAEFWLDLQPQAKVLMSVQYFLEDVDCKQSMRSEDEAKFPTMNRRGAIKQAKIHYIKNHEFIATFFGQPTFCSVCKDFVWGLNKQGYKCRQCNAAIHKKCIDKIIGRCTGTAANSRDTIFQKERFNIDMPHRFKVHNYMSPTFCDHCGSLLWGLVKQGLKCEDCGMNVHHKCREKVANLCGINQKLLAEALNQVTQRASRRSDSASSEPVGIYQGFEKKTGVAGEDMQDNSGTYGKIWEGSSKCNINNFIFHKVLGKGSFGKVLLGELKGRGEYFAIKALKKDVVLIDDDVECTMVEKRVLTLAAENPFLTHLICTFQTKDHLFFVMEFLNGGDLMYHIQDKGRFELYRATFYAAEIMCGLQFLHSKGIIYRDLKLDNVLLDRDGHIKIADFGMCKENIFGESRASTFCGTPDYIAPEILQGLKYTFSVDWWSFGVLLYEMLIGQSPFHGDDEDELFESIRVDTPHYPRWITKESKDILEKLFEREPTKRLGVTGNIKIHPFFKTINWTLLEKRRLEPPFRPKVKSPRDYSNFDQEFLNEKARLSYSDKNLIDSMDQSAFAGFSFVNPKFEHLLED

[3] = molecular target: T3, protein kinase D1 (PKD1) (Homo sapiens, UniProt Q15139); test: in vitro radiometric kinase assay, 10-point curve; Lineweaver-Burk
T3 construct: gene PRKD1; GST-tagged recombinant human PKD1
T3 sequence (Q15139 1-912): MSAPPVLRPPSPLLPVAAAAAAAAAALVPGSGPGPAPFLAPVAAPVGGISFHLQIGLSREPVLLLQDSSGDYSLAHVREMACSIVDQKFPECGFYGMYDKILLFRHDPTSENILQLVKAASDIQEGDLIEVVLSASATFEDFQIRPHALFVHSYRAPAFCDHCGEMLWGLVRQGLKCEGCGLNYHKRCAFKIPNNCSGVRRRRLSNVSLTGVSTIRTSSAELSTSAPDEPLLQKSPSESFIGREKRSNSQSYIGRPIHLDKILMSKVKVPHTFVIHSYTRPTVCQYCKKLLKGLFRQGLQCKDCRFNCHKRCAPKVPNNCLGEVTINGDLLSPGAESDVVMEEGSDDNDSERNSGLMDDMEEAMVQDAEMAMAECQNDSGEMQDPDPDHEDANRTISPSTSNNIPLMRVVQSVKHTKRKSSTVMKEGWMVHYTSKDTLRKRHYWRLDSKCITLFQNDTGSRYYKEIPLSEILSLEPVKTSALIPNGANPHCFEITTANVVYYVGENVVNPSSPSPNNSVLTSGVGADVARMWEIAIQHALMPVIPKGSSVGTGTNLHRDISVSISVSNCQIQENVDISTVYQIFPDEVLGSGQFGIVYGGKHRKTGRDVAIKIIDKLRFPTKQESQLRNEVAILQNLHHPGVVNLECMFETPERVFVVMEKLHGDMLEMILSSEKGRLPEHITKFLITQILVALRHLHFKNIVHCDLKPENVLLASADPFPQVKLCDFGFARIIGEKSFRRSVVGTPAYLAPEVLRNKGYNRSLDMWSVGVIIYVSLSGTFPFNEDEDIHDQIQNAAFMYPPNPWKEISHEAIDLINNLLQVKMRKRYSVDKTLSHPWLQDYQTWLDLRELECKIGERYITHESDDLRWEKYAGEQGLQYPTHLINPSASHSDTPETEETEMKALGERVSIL

[4] = molecular target: T4, PKD3 (Homo sapiens, UniProt O94806); test: in vitro radiometric kinase assay, 10-point curve
T4 construct: gene PRKD3; recombinant human PKD3
T4 sequence (O94806 1-890): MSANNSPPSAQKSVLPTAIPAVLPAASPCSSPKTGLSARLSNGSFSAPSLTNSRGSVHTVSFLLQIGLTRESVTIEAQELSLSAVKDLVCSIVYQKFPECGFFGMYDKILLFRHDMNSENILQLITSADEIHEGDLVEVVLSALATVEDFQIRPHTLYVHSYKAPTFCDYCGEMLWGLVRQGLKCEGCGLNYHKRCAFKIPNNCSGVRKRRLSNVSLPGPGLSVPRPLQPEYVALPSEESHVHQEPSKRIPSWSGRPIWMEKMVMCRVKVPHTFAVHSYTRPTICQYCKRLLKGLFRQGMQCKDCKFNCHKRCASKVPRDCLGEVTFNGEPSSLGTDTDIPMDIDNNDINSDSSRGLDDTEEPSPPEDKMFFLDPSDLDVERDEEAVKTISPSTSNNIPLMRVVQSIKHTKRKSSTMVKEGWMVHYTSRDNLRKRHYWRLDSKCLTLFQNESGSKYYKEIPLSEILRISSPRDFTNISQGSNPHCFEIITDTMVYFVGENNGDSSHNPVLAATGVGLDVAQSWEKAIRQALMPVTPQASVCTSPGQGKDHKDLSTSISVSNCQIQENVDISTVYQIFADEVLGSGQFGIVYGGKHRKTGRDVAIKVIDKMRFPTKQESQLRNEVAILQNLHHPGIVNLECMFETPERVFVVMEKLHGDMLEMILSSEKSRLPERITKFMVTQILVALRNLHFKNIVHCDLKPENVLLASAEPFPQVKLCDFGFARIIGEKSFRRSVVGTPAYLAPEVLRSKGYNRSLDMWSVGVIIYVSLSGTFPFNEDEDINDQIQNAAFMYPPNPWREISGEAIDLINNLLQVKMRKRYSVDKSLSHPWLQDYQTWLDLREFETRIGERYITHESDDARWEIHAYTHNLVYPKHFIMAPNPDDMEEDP

[5] = molecular target: T5, PKD2 (Homo sapiens, UniProt Q9BZL6); test: in vitro radiometric kinase assay, 10-point curve
T5 construct: gene PRKD2; recombinant human PKD2
T5 sequence (Q9BZL6 1-878): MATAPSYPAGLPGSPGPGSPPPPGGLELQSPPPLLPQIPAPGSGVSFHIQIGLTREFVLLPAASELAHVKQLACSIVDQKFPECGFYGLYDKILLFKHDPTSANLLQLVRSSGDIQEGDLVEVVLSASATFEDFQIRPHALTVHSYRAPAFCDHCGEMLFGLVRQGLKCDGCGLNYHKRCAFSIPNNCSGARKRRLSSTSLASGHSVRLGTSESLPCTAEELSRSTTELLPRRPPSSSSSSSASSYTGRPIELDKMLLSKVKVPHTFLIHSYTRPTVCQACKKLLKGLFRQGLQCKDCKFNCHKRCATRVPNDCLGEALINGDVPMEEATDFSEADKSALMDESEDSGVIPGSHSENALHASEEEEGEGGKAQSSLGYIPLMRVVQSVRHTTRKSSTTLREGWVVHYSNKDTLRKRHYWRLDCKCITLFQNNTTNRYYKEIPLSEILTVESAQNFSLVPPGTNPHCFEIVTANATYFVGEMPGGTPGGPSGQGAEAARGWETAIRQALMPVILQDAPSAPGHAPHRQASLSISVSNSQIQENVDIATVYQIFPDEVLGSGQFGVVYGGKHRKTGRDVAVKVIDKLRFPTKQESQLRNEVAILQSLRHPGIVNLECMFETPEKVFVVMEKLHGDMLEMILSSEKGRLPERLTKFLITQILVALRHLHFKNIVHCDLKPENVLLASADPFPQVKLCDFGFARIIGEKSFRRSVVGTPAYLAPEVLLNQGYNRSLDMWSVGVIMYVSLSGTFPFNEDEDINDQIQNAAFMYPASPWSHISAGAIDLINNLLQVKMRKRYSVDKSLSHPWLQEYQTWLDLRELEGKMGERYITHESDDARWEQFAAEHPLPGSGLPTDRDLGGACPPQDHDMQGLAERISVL

| Compound | in vitro radiometric PKC kinase assay [1] | in vitro radiometric PKC kinase assay [2] | IC50 [3] | IC50 [4] | IC50 [5] |
| --- | --- | --- | --- | --- | --- |
| CN(C)CCCn1cc(C2=C(c3c[nH]c4ccccc34)C(=O)NC2=O)c2ccccc21 [GF109203X] | GF109203X was tested as a positive control and it potently and concentration-dependently inhibited PKCα and PKCδ | GF109203X was tested as a positive control and it potently and concentration-dependently inhibited PKCα and PKCδ | – | – | – |
| Fc1ccc(Cl)cc1-c1nc(Nc2ccncc2)c2nccnc2n1 [SD-208] | – | – | 107 nM | 105 nM | 93.5 nM |
